Test results as given in US20240150334A1, “HSD17B13 INHIBITORS AND/OR DEGRADERS” (Pfizer Inc., priority 2022, published 2024).
Where a name gives a salt, the structure may show the parent alone.

The molecules below were run against wild type human HSD17B13 (Homo sapiens (Human), UniProt Q7Z5P4) (assay: HEK_Beta-Est LCMS_IC50_Tekcel, whole-cell HEK-HSD17B13 inhibition assay, estrone production by LCMS). Details: geometric mean, HEK cells stably expressing wild type human HSD17B13, 25 μM FAC beta-estradiol, read-out: HEK_Beta-Est LCMS_IC50—Tekcel GMean IC50.
Assay type: cell-based
Description: HEK_Beta-Est LCMS_IC50_Tekcel
Inhibition potency of test compounds was determined using a whole-cell HEK-HSD17B13 inhibition assay, utilizing a LCMS readout.
HSD17B13 uses the oxidized form of nicotinamide adenine dinucleotide (NAD+) as a cofactor during metabolism of beta-estradiol (substrate), converting NAD+ to the reduced form (NADH) and beta-estradiol to its product (estrone). Estrone production is quantified by LCMS, and used as a measure of HSD17B13 enzyme activity.
([…]: 5% CO2). […] Growth media was then removed from the cell plates and replaced with 10 μL of 2×FAC test compound, and incubated for 1 hour (with lid) at 37° C. […] The reaction was incubated for 2 hours (with lid) at 37° C. […] Amount of product (estrone) was then quantified by LCMS. Data expressed as product area ratio (PAR) were then normalized to control wells using Activity Base (IDBS). Zero percent effect (ZPE) was defined as PAR generated from uninhibited HSD17B13 (vehicle control).

Sequence of wild type human HSD17B13 (Q7Z5P4 20-300): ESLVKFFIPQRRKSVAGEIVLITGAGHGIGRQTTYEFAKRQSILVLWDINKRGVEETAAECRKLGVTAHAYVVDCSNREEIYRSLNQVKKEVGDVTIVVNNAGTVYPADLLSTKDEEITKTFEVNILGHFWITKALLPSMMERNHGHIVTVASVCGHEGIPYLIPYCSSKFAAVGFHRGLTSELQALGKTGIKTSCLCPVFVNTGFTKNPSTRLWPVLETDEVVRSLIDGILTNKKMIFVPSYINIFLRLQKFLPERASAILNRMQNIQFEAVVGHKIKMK

Row | SMILES | IC50 [nM]
1 | N#Cc1cccc(-c2ccc3nn([C@H]4CC[C@H](CNC(=O)c5cc(F)c(O)c(F)c5)CC4)cc3c2)c1 [Example 156, N-({(1r,4r)-4-[5-(3-cyanophenyl)-2H-indazol-2-yl]cyclohexyl}methyl)-3,5-difluoro-4-hydroxybenzamide] | 170
2 | O=C(NC[C@H]1CC[C@H](n2cc3cc(-c4cncnc4)ccc3n2)CC1)c1cc(F)c(O)c(F)c1 [Example 157, 3,5-difluoro-4-hydroxy-N-({(1r,4r)-4-[5-(pyrimidin-5-yl)-2H-indazol-2-yl]cyclohexyl}methyl) benzamide, trifluoroacetate salt] | 270
3 | O=C(NC[C@H]1CC[C@H](n2cc3ccc(-n4cccn4)cc3n2)CC1)c1cc(F)c(O)c(F)c1F [Example 158, 2,3,5-trifluoro-4-hydroxy-N-({(1r,4r)-4-[6-(1H-pyrazol-1-yl)-2H-indazol-2-yl]cyclohexyl}methyl) benzamide, trifluoroacetate salt] | 190
4 | Cn1cc(-c2ccc3nn([C@H]4CC[C@H](CNC(=O)c5cc(F)c(O)c(F)c5)CC4)cc3c2)cn1 [Example 159, 3,5-difluoro-4-hydroxy-N-({(1r,4r)-4-[5-(1-methyl-1H-pyrazol-4-yl)-2H-indazol-2-yl]cyclohexyl}methyl) benzamide, trifluoroacetate salt] | 91
5 | O=C(NC[C@H]1CC[C@H](n2cc3ccc(-c4cnn(CCO)c4)cc3n2)CC1)c1cc(F)c(O)c(F)c1 [Example 160, 3,5-difluoro-4-hydroxy-N-{[(1r,4r)-4-{6-[1-(2-hydroxyethyl)-1H-pyrazol-4-yl]-2H-indazol-2-yl}cyclo-hexyl]methyl} benzamide, trifluoroacetate salt] | 400
6 | O=C(NC[C@H]1CC[C@H](n2cc3cc(-c4cnn(C(F)F)c4)ccc3n2)CC1)c1cc(F)c(O)c(F)c1F [Example 161, N-{[(1r,4r)-4-{5-[1-(difluoromethyl)-1H-pyrazol-4-yl]-2H-indazol-2-yl}cyclo-hexyl]methyl}-2,3,5-trifluoro-4-hydroxy-benzamide] | 180
7 | Cc1ccn(-c2ccc3cn([C@H]4CC[C@H](CNC(=O)c5cc(F)c(O)c(F)c5F)CC4)nc3c2)n1 [Example 162, 2,3,5-trifluoro-4-hydroxy-N-({(1r,4r)-4-[6-(3-methyl-1H-pyrazol-1-yl)-2H-indazol-2-yl]cyclohexyl}methyl) benzamide] | 310
8 | Cc1cn(-c2ccc3cn([C@H]4CC[C@H](CNC(=O)c5cc(F)c(O)c(F)c5F)CC4)nc3c2)cn1 [Example 163, 2,3,5-trifluoro-4-hydroxy-N-({(1r,4r)-4-[6-(4-methyl-1H-imidazol-1-yl)-2H-indazol-2-yl]cyclo-hexyl}methyl) benzamide] | 330
9 | O=C(NC[C@H]1CC[C@H](n2cc3ccc(-c4cnn(C(CO)CCl)c4)cc3n2)CC1)c1cc(F)c(O)c(F)c1 (stereo partly shown) [Example 164, N-{[(1r,4r)-4-{6-[1-(1-chloro-3-hydroxypropan-2-yl)-1H-pyrazol-4-yl]-2H-indazol-2-yl}cyclohexyl]methyl}-3,5-difluoro-4-hydroxybenzamide, trifluoroacetate salt] | 230
10 | O=C(NC[C@H]1CC[C@H](n2cc3ccc(-n4cncn4)cc3n2)CC1)c1cc(F)c(O)c(F)c1F [Example 165, 2,3,5-trifluoro-4-hydroxy-N-({(1r,4r)-4-[6-(1H-1,2,4-triazol-1-yl)-2H-indazol-2-yl]cyclohexyl}methyl) benzamide] | 420
11 | O=C(NC[C@H]1CC[C@H](n2cc3ccc(-n4ccnc4)cc3n2)CC1)c1cc(F)c(O)c(F)c1F [Example 166, 2,3,5-trifluoro-4-hydroxy-N-({(1r,4r)-4-[6-(1H-imidazol-1-yl)-2H-indazol-2-yl]cyclohexyl}methyl) benzamide, trifluoroacetate salt] | 410
12 | O=C(NC[C@H]1CC[C@H](c2cn3cc(-c4cnn(C(F)F)c4)ccc3n2)CC1)c1cc(F)c(O)c(F)c1F [Example 167, N-{[(1r,4r)-4-{6-[1-(difluoromethyl)-1H-pyrazol-4-yl]imidazo [1,2-a]pyridin-2-yl}cyclohexyl]methyl}-2,3,5-trifluoro-4-hydroxy-benzamide, trifluoroacetate salt] | 200
13 | Cn1nc(-c2noc([C@]34CC[C@](CNC(=O)c5cc(F)c(O)c(F)c5F)(CC3)CC4)n2)ccc1=O [Example 168, 2,3,5-trifluoro-4-hydroxy-N-({4-[3-(1-methyl-6-oxo-1,6-dihydropyridazin-3-yl)-1,2,4-oxadiazol-5-yl]bicyclo[2.2.2]octan-1-yl}methyl) benzamide] | 380
14 | O=C(NC[C@H]1CC[C@H](n2cc3cnc(-c4cccnc4)cc3n2)CC1)c1cc(F)c(O)c(F)c1 [Example 189, 3,5-difluoro-4-hydroxy-N-({(1r,4r)-4-[6-(pyridin-3-yl)-2H-pyrazolo[4,3-c]pyridin-2-yl]cyclohexyl}methyl) benzamide] | 430
15 | CC(C)(C)OC(=O)N[C@]12CC[C@](CNC(=O)c3cc(F)c(O)c(F)c3)(CC1)CC2 [Example 192, tert-butyl {4-[(3,5-difluoro-4-hydroxybenzamido)methyl]bicyclo[2.2.2]octan-1-yl}carbamate] | 480
16 | Cc1cccc(-c2noc([C@]34CC[C@](CNC(=O)c5cc(F)c(O)c(F)c5)(CC3)CC4)n2)n1 [Example 194, 3,5-difluoro-4-hydroxy-N-({4-[3-(6-methylpyridin-2-yl)-1,2,4-oxadiazol-5-yl]bicyclo[2.2.2]octan-1-yl}methyl) benzamide] | 230
17 | COc1ncc(-c2cc3cn([C@H]4CC[C@H](CNC(=O)c5cc(F)c(O)c(F)c5)CC4)nc3cn2)cn1 [Example 201, 3,5-difluoro-4-hydroxy-N-({(1r,4r)-4-[5-(2-methoxypyrimidin-5-yl)-2H-pyrazolo[3,4-c]pyridin-2-yl]cyclohexyl}methyl) benzamide, trifluoroacetate salt] | 350
18 | O=C(NC[C@]12CC[C@](c3nc(-c4ncc(C(F)(F)F)cn4)no3)(CC1)CC2)c1cc(F)c(O)c(F)c1 [Example 203, 3,5-difluoro-4-hydroxy-N-[(4-{3-[5-(trifluoromethyl)pyrimidin-2-yl]-1,2,4-oxadiazol-5-yl}bicyclo[2.2.2]octan-1-yl)methyl]benzamide] | 98
19 | Cn1cc(-c2ccc3cn([C@]45CC[C@](CNC(=O)c6cc(F)c(O)c(F)c6)(CC4)CC5)nc3c2)cn1 [Example 204, 3,5-difluoro-4-hydroxy-N-({4-[6-(1-methyl-1H-pyrazol-4-yl)-2H-indazol-2-yl]bicyclo[2.2.2]octan-1-yl}methyl)benzamide] | 99
20 | O=C(NC[C@]12CC[C@](n3cc4ccc(Br)cc4n3)(CC1)CC2)c1cc(F)c(O)c(F)c1 [Example 205, N-{[4-(6-bromo-2H-indazol-2-yl)bicyclo[2.2.2]octan-1-yl]methyl}-3,5-difluoro-4-hydroxybenzamide] | 220
21 | O=C(NC[C@]12CC[C@](n3cc4ccc(-c5cncnc5)cc4n3)(CC1)CC2)c1cc(F)c(O)c(F)c1 [Example 206, 3,5-difluoro-4-hydroxy-N-({4-[6-(pyrimidin-5-yl)-2H-indazol-2-yl]bicyclo [2.2.2]octan-1-yl}methyl)benzamide] | 150
22 | O=C(NC[C@]12CC[C@](n3cc4ccc(-c5ncccn5)cc4n3)(CC1)CC2)c1cc(F)c(O)c(F)c1 [Example 207, 3,5-difluoro-4-hydroxy-N-({4-[6-(pyrimidin-2-yl)-2H-indazol-2-yl]bicyclo [2.2.2]octan-1-yl}methyl)benzamide] | 140
